Drawing on patent US20140148484A1, “PYRAZOLE COMPOUNDS FOR TREATING HAIRLOSS” (Boehringer Ingelheim International GmbH, priority 2012, published 2014), this text covers Ki for 29 molecules.

The assay concerns the target T1, human CRTH2 receptor (Homo sapiens, UniProt Q9Y5Y4).
T1 construct: host or cells: CHO-K1 (CHO-K1-hCRTH2 cells); membranes prepared in house from the purchased cell line
T1 sequence (Q9Y5Y4 1-395): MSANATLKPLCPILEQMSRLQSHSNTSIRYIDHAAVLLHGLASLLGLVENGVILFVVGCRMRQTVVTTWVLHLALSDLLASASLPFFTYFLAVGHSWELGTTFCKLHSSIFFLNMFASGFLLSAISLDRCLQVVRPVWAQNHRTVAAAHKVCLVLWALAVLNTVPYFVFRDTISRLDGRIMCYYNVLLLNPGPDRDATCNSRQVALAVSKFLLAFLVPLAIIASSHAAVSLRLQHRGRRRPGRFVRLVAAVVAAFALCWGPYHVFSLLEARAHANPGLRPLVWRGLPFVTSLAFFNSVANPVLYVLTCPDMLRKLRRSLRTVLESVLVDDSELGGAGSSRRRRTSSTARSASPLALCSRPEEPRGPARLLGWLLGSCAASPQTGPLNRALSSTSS
Briefly: Human CRTH2 receptor membrane radioligand binding assay (SPA, [3H]-PGD2). The settings on record: displacement of [3H]-PGD2 (1 nM) from CHO-K1-hCRTH2 cell membranes, 3 h room temperature. As to the method:
Preparation of Human CRTH2 Receptor Membranes and Radioligand Binding Assay
The binding of CRTH2 antagonists is determined using membranes prepared from Chinese hamster ovary cells (CHO-K1 cells) transfected with the human CRTH2 receptor (CHO-K1-hCRTH2 cells, Perkin Elmer, Cat No ES-561-C). To produce cell membranes the CHO-K1-hCRTH2 cells are cultured in suspension in CHO SFMII medium supplemented with 400 μg/ml G418. The cells are harvested by centrifugation at 300 g for 10 min at room temperature. The cell pellet is resuspended in Phosphate Buffer Saline (PBS) including a protease inhibitor mix (Complete, Roche) and adjusted to a concentration of 10E7 cells/ml. The CHO-K1-hCRTH2 cells are disrupted by nitrogen […] to obtain the membrane preparation. Cell debris is removed by centrifugation (500 g at 4° C., 30 min) and the supernatant is transferred into fresh tubes followed by a second centrifugation at 40000 g for 1 h at 4° C. to sediment the membranes. The membranes are suspended in SPA incubation buffer (50 mM Tris HCl, 10 mM MgCl2, 150 mM NaCl, 1 mM EDTA, pH 7.4) without bovine serum albumin, homogenized by passing through a single use needle (Terumo, 23G×1″), and stored in aliquots at −80° C.
The CRTH2 receptor binding assay is performed in a scintillation proximity assay (SPA) format with the radioligand [^3H]-PGD2 (Perkin Elmer, NET616000MC). CHO-K1-hCRTH2 cell membranes are again homogenized by passing through a single use needle (Terumo, 23G×1″) and diluted in SPA incubation buffer in suitable concentrations (0.5-10 μg protein/well). The SPA assay is set up in 96 well microtiter plates (Perkin Elmer, CatNo. 6005040) in SPA incubation buffer with a final volume of 200 μl per well and final concentration of 50 mM Tris-HCl, 10 mM MgCl2, 150 mM NaCl, 1 mM EDTA pH 7.4, 0.1% bovine serum albumin). The SPA assay mixture contains 60 μl of the membrane suspension, 80 μl of Wheat Germ Agglutinin coated PVT beads (GE Healthcare, RPNQ-0001, 0.3 mg/well), 40 μl of [3H]-PGD2 diluted in SPA buffer to a final concentration of 1 nM (50 000 dpm) and 20 μl of the test compound (dissolved in dimethylsulfoxid). The SPA assay mixture is incubated for 3 h at room temperature. Bound radioactivity is determined with a scintillation counter (Micro Beta Trilux, Wallac).
The binding of [^3H]-PGD2 to CHO-K1-hCRTH2 cell membranes is determined in the absence (total binding, Bo) and presence (non-specific binding, NSB) of unlabelled PGD2 (1 μM, Cayman Chemical, Cat No 12010) or a reference CRTH2 antagonist (10 μM CAY10471, Cayman Chemical, Cat No 10006735).
Determination of the affinity of a test compound is calculated by subtraction of the non-specific binding (NSB) from the total binding (Bo) or the binding in the presence of the test compound (B) at a given compound concentration. […] The Bo−NSB value is set to 0% inhibition.
What is called Ki is the equilibrium dissociation constant of an inhibitor or competing ligand from its target. A low value points to higher affinity. On to `CCc1nn(Cc2ccc(C(=O)NCc3ccc(C(F)(F)F)cc3)cc2)c(CC)c1CC(=O)O` [Example 9.20], for which the Ki was 38 nM.
In turn, `Cc1c(CC(=O)O)cnn1Cc1ccc(NC(=O)c2ccc3ccccc3c2)cc1` [Example 2.55] yielded a Ki of 21.6 nM.
`Cc1c(CC(=O)O)c(C2CCCCC2)nn1Cc1ccc(NC(=O)c2ccc(C(F)(F)F)cc2)cc1` [Example 2.7]: the Ki is 12.9 nM.
Consider `CCc1nn(Cc2ccc(NC(=O)c3ccc(C(F)(F)F)cc3)cc2)c(C)c1CC(=O)O` [Example 2.53], for which affinity was put at a Ki of 0.2 nM.
In turn, `CC(C)(C)c1nn(Cc2ccc(C(=O)Nc3ccc(F)c(Cl)c3)cc2)c(C(C)(C)C)c1CC(=O)O` [Example 9.15] had a Ki of 32 nM.
Turning to `Cc1nn(Cc2ccc(C(=O)Nc3ccc(Cl)c(C(F)(F)F)c3)cc2)c(C)c1CC(=O)O` [Example 9.6], the Ki was 3 nM. Compared with the last molecule, the Ki is about 11-fold lower.
For `Cc1nn(Cc2ccc(S(=O)(=O)Nc3ccc(F)cc3)cc2)c(C)c1CC(=O)O` [Example 10.1] the value was 2.6 nM; for `Cc1cc(Br)ccc1C(=O)Nc1ccc(Cn2nc(C)c(CC(=O)O)c2C)cc1` [Example 1.16], 3.9 nM.
In turn, `Cc1nn(Cc2ccc(NC(=O)c3cccc4c3CCCC4)cc2)c(C)c1CC(=O)O` [Example 1.29] displayed a Ki of 2.5 nM.
For the molecule `Cc1nn(Cc2ccc(C[S+]([O-])c3ccc(C(F)(F)F)cc3)cc2)c(C)c1CC(=O)O` (centres unmarked) [Example 16.2], affinity was put at a Ki of 324 nM.
Regarding `CCc1nn(Cc2ccc(NC(=O)c3cccc(C)c3CC(C)C)cc2)c(CC)c1CC(=O)O` [Example 2.28], the Ki came to 17.1 nM.
For `COc1ccc(C(=O)Nc2ccc(Cn3nc(C)c(CC(=O)O)c3C)cc2)cc1` [Example 1.5] the value was 12.9 nM.
The molecule `Cc1cc(C(F)(F)F)ccc1C(=O)Nc1ccc(Cn2nc(C)c(CC(=O)O)c2C)c(F)c1` [Example 7.16] returned a Ki of 3.5 nM.
Turning to `CCc1nn(Cc2ccc(NC(=O)C3CCCCC3)cc2)c(CC)c1CC(=O)O` [Example 2.18], the Ki worked out at 2.8 nM. The Ki values of the last two molecules are within 1.5-fold of each other.
The molecule `Cc1nn(Cc2ccc(CS(=O)(=O)c3ccc(Cl)c(Cl)c3)cc2)c(C)c1CC(=O)O` [Example 16.6] returned a Ki of 853 nM. This Ki lies about 300-fold higher than the previous one.
For `Cc1cc(Cl)ccc1C(=O)Nc1ccc(Cn2nc(C)c(CCC(=O)O)c2C)cc1` [Example 8.1] the value was 1660 nM.
`CCc1nn(Cc2ccc(NC(=O)OCc3ccc4ccccc4c3)cc2)c(CC)c1CC(=O)O` [Example 3.12] had a Ki of 0.1 nM.
In turn, `Cc1c(CC(=O)O)cnn1Cc1ccc(NC(=O)c2ccc3ccccc3c2)cc1` [Example 2.58] registered a Ki of 24.6 nM.
Molecule `Cc1nn(Cc2ccc(NC(=O)c3ccc(Cl)cc3)cc2Cl)c(C)c1CC(=O)O` [Example 7.6] yielded a Ki of 1.2 nM.
Next, `COc1ccc(COc2ccc(Cn3nc(C)c(CC(=O)O)c3C)cc2)cc1C(F)(F)F` [Example 13.6]: 28.9 nM; `CCc1c(CC(=O)O)c(C2CC2)nn1Cc1ccc(NC(=O)c2cccc3ccccc23)cc1` [Example 2.51]: 3.5 nM; `Cc1nn(Cc2ccc(NC(=O)C(C)C)cc2)c(C)c1CC(=O)O` [Example 1.32]: 32.5 nM.
For `CCc1nn(Cc2ccc(NC(=O)c3ccccc3C3CC3)cc2)c(CC)c1CC(=O)O` [Example 2.35] the value was 11.6 nM.
Next, `CCc1nn(Cc2ccc(C(=O)Nc3cccc(F)c3)cc2)c(CC)c1CC(=O)O` [Example 9.10]: 39.1 nM; `Cc1nn(Cc2ccc(NS(=O)(=O)c3ccc(Cl)cc3)cc2)c(C)c1CC(=O)O` [Example 5.2]: 33.7 nM.
The molecule `Cc1nn(Cc2ccc(NC(=O)/C=C/c3ccccc3)cc2)c(C)c1CC(=O)O` [Example 1.13] returned a Ki of 4 nM.
Regarding `CCc1nn(Cc2ccc(OCc3cccc(C(F)(F)F)c3)cc2)c(CC)c1CC(=O)O` [Example 13.10], the affinity, expressed as Ki, was 19.6 nM.
For `Cc1c(CC(=O)O)c(-c2ccccc2)nn1Cc1ccc(NC(=O)c2ccc(C(F)(F)F)cc2)cc1` [Example 2.11] the value was 1.2 nM; for `CCc1nn(Cc2ccc(NC(=O)c3ccc(Cl)cc3)cc2)c(CC)c1CC(=O)O` [Example 2.5], 0.75 nM.
